Data taken from patent US6852754B1, “Biologically active linderazulene terpenes” (Harbor Branch Oceanographic Institution, Inc., priority 2004, dated 2005).

Columns and labels:
[1] = system: P388 murine leukemia cell line; test: Antiproliferative MTT assay, P388 cells, 48-h exposure; type: cell-based; details: Mus musculus, read-out: P388 (IC50 μg/ml)
Method: (§1) Compounds I and II was analyzed as to their effect on the proliferation of PANC-1 human pancreatic and P388 murine leukemia cell lines. P388 cells were obtained from Dr. R. Camalier, National Cancer Institute, Bethesda, Md., and PANC-1 cells were obtained from American Type Culture Collection, Rockville, Md. All cell lines were maintained in tissue culture medium (TCM; Roswell Park Memorial Institute RPMI 1640 supplemented with 100 U/mL penicillin, […] streptomycin, […] 1-glutamine, 18 mM HEPES, 0.05 mg/mL gentamicin (Life Technologies, Gaithersburg, Md.) and 10% fetal bovine serum) and cultured in plastic tissue culture flasks at 37° C. in humidified air containing 5% CO2. Stock cultures of P388 cells were subcultured 1:20 in fresh TCM every 2 to 3 days. Stock cultures of […] cells were subcultured 1:10 every 3 to 4 days. To assess the antiproliferative effects of agents against the cells, […] cultures (96-well tissue culture plates, Nunc, Denmark) were established at 1×10^5 cells/mL in TCM or TCM containing the test agent at 0.03-5.0 μg/mL. After 48-h exposures, P388 cells were enumerated using 3-[4,5-dimethylthiazol-2-yl]-2,5-diphenyltetrazolium bromide (MTT) as described in the literature (M. C. Alley, et al., Cancer Res. 48:589, 1988). […] The results were expressed as percent inhibition compared to the negative (no drug) control. […]

[2] = system: PANC-1 human pancreatic cell line; test: Antiproliferative MTT assay, PANC-1 cells, 72 hours exposure; type: cell-based
Method: as §1

| IC50 [1] | PANC-1 (IC50 μg/ml) [2] | IC50 ([2]; Homo sapiens, read-out: PANC-1 (IC50 μg/ml)) | SMILES |
| --- | --- | --- | --- |
| 15.6 µg/mL | No inhibition of cell |  | Cc1cc2occc2cc2c(C=O)ccc1-2 [11-formyllinderazulene (II), 11-formyllinderazulene] |
| 2.7 µg/mL |  | 18.7 µg/mL | COC(=O)c1ccc2c(C)cc3occc3cc1-2 [11-carbomethoxylinderazulene (I), 11-carbomethoxylinderazulene] |
